The subject of assay [1] is NF-κB. The experiment in a line: IL-1β secretion by ELISA in PMA-differentiated macrophages, compound given together with LPS (1st signal). Type of assay: cell-based. As to the method: (§1) In order to compare benzoic acid (BA) and nitroalkene benzoic acid (BANA) over NF-κB and inflammasome function in macrophages, TUP-1 cells were differentiated into macrophages with PMA (200 nM, 48 h). Cells were then stimulated with LPS (250ng/mL) and with ATP (5mM, 45 minutes). Together with LPS (1st signal, FIG. 6) or ATP (2nd signal, FIG. 7), cells were treated with Benzoic acid (30 µM) or BANA (30 µM). Supernatants were collected and IL-1β secretion was measured by ELISA. […] Thus, BANA inhibits both the generation of the inflammasome, and inhibits the inflammasome itself.
(§2) Further exemplary studies were performed with Flufenamate (FluFE) and nitroalkene flufenamate (FluFENA). In order to study the effect of Flufenamate (FluFE) and FluFENA over NF-κB and inflammasome function in macrophages, THP-1 cells were differentiated into macrophages with PMA (200 nM, 48 h). Cells were stimulated with LPS (250ng/mL) and then with ATP (5mM, 45 minutes). Together with LPS (1st signal, FIG. 8) or ATP (2nd signal, FIG. 9), cells were treated with FluFE (5 µM) or FluFENA (5 µM). Supernatant were collected and IL-1β secretion was measured by ELISA. Cell viability was assessed by the MTT assay.
(§3) To study the effect of ibuprofen and IBUNA over NF-xB and inflammasome function in macrophages, TUP-1 cells were differentiated into macrophages with PMA (200 nM, 48 h). Cells were stimulated with LPS (250ng/mL) and then with ATP (5mM, 45 minutes). Together with LPS (1st signal, FIG. 10) or ATP (2nd signal, FIG. 11), cells were treated with Ibuprofen (20 µM) or IBUNA (20 µM). Supernatant were collected and IL-1β secretion was measured by ELISA.

Assay [2] deals with IL-1β. The experiment in a line: In vivo model of peritonitis (LPS-induced inflammatory response), IL-1β by ELISA. As to conditions: mice, 50 mg/kg IP 1 hour before LPS 10 mg/kg IP for 2 hours; as opposed to BA; FIG. 12. As to the method: Mice were treated with BANA, Benzoic Acid (50 mg/kg, IP) or the vehicle (100 mM Phosphate buffer 10% DMSO) for 1 hour. Then were injected with LPS (10 mg/kg, IP) or PBS for 2 hours. Mice were collected for peritoneal wash and blood samples were extracted. The peritoneal wash and plasma were stored to measure IL-1β by ELISA. The values are show as mean ± SD from three mice per condition and we have used the statistic test one-way ANOVA with Bonferroni.

Assay [3] is described as follows: Adduct formation with beta mercaptoethanol (BME), followed spectrophotometrically. An excerpt:
While not wishing to be bound by theory, during inflammation, reversible reactions with nucleophilic molecules such as NF-κB and the inflammasomes have shown to modify inflammatory response. One method to identify reactions with nucleophilic targets at physiological pH is by screening with beta mercaptoethanol ("BME"). […] Thus, the nitroalkene NSAIDs within the scope of the present invention react with nucleophilic molecules such as NF-κB and the inflammasomes to modify inflammatory response.

Assay [4] concerns inflammasome. The experiment in a line: IL-1β secretion by ELISA in PMA-differentiated macrophages, compound given together with ATP (2nd signal). In kind it is cell-based. As to the method: as §1, §2, §3

With `O=C(O)c1ccc(/C=C/[N+](=O)[O-])cc1` [BANA, (E)-4-(2-nitrovinyl)benzoic acid], in assay [1] (TUP-1 cells differentiated with PMA, 30 µM together with LPS 250ng/mL (1st signal), then ATP 5mM 45 minutes, vs Benzoic acid 30 µM, FIG. 6), the IL-1β secretion entry is on record as “inhibition of IL-1β secretion”. In assay [2], the “level of pro-inflammatory cytokine IL-1β secretion in blood plasma” value is listed as “marked decrease” and the “level of pro-inflammatory cytokine IL-1β secretion in peritoneal wash” value was “marked decrease”. Also, the “nitroalkene NSAID adduction with BME (absorbance)” value (“nitroalkene NSAID adduction” below) in assay [3] (10 µM BANA with 30 µM BME, 100 mM phosphate buffer pH 7.4, FIG. 4) is on record as “absorbance increase”. For the same compound, the IL-1β secretion result in assay [4] (TUP-1 cells differentiated with PMA, LPS 250ng/mL, then 30 µM together with ATP 5mM 45 minutes (2nd signal), vs Benzoic acid 30 µM, FIG. 7) is “inhibition of IL-1β secretion”.
`O=C(O)c1cc(/C=C/[N+](=O)[O-])ccc1Nc1cccc(C(F)(F)F)c1` [FluFENA, (E)-5-(2-nitrovinyl)-2-((3-(trifluoromethyl)phenyl)amino)benzoic acid]: the IL-1β secretion entry in assay [1] (THP-1 cells differentiated with PMA, 5 µM together with LPS 250ng/mL (1st signal), compared with FluFE 5 µM, FIG. 8) was “unexpected advantage”; in assay [4] (THP-1 cells differentiated with PMA, 5 µM together with ATP 5mM 45 minutes (2nd signal), compared with FluFE 5 µM, FIG. 9) it was “unexpected advantage”. In assay [3] (12.5 µM FluFENA with 125 µM BME, 100 mM phosphate buffer pH 7.4, FIG. 3), the “nitroalkene NSAID adduction” value is listed as “absorbance increase”.
On to `CC(C)Cc1ccc(C(C)C(=O)O)cc1/C=C/[N+](=O)[O-]` (stereo not shown) [IBUNA, (E)-2-(4-isobutyl-3-(2-nitrovinyl)phenyl)propanoic acid], for which the IL-1β secretion entry is given as “unexpected superiority” in assay [1] (TUP-1 cells differentiated with PMA, 20 µM together with LPS 250ng/mL (1st signal), compared with Ibuprofen 20 µM, FIG. 10) and “unexpected superiority” in assay [4] (TUP-1 cells differentiated with PMA, 20 µM together with ATP 5mM 45 minutes (2nd signal), compared with Ibuprofen 20 µM, FIG. 11). In assay [3] (50 µM IBUNA with 250 µM BME, 100 mM phosphate buffer pH 7.4, FIG. 2), the “nitroalkene NSAID adduction” value is reported as “absorbance increase”.
For the compound `CC(=O)Nc1ccc(O)c(/C=C/[N+](=O)[O-])c1` [PARANA, (E)-N-(4-hydroxy-3-(2-nitrovinyl)phenyl)acetamide], the “nitroalkene NSAID adduction” value in assay [3] (30 µM PARANA with 30 µM BME, 100mM phosphate buffer pH 7.4, FIG. 1) is “absorbance increase”.
Consider `O=[N+]([O-])/C=C/c1ccc(O)cc1` [PheNA, (E)-4-(2-nitrovinyl)phenol], for which the “nitroalkene NSAID adduction” value in assay [3] (50 µM PheNA with 500 µM BME, 100 mM phosphate buffer pH 7.4, FIG. 5) is on record as “absorbance increase”.

The values above are taken from patent publication EP3732162B1, “NITROALKENE NON STEROIDAL ANTI-INFLAMMATORY DRUGS (NA-NSAIDS) AND METHODS OF TREATING INFLAMMATION RELATED CONDITIONS” (Institut Pasteur De Montevideo, priority 2017, dated 2019).
